Measured values from patent US20240207240A1, “Method for Improving or Treating Cognitive Dysfunction Complicating HIV-associated Cryptococcal Meningitis with Lenalidomide” (The First Affiliated Hospital Zhejiang University School of …, priority 2022, published 2024).
“And” between values parts separate entries of the source, which are not always exact repeats. Equal entries are not always repeated. Where two headings read alike, the source gives them in different places.

Tests used:
CSF cytokines = test: Detection of inflammatory cytokines in CSF (Human Cytokine/Chemokine/Growth Factor Panel A); assay type: in vivo; conditions: for CSF Apo. E / CSF CFH / CSF Complement C3 / CSF FGF-2 / CSF G-CSF / CSF GM-CSF / CSF GRO / CSF IFN-γ / CSF IL-1α / CSF IL-1β / CSF IL-2 / CSF IL-3 / CSF IL-4 / CSF IL-6 / CSF IL-8 / CSF IL-10 / CSF IL-12p40 / CSF IL-12p70 / CSF IL-13 / CSF IL-17α / CSF IP-10 / CSF MCP-1 / CSF MIP-1α / CSF MIP-1β / CSF PDGF-AA / CSF TNF-α / CSF apoA-I / CSF pTau 181 / CSF sCD40L / CSF tTau / CSF α-2-M / CSF αβ42: W 24, after 6 cycles lenalidomide
Protocol: Detection of inflammatory cytokines in CSF: CSF samples were collected from the participants and centrifuged immediately; and the supernatant was stored at −80° C. until testing. 32 CSF cytokines were analyzed using the Human Cytokine/Chemokine/Growth Factor Panel A (Merck Millipore, St. Louis, USA): α-2-macroglobulin (α-2-M), apolipoprotein A-I (apoA-I), Apo-E, complement C3, complement factor H (CFH), fibroblast growth factor 2 (FGF-2), granulocyte-colony stimulating factor (G-CSF), granulocyte-macrophage colony-stimulating factor (GM-CSF), interferon-γ (IFN-γ), growth-regulated oncogene (GRO), soluble CD40 ligand (sCD40L), platelet-derived growth factor-AA (PDGF-AA), interleukin (IL)-12p40, IL-12p70, IL-13, IL-1α, IL-1β, IL-2, IL-3, IL-4, IL-6, IL-8, IL-10, IL-17α, monocyte chemoattractant protein-1 (MCP-1), macrophage inflammatory protein-la (MIP-la), MIP-1β, tumor necrosis factor-a (TNF-α), IL-17α, amyloid-β (1-42) (αβ42), total Tau (tTau) and phosphorylated Tau 181 (pTau181), The abbreviations of CSF cytokines are provided in Table 3.

[1] = cited from earlier work
[2] = system: intracranial inflammation (CSF WBC, protein, albumin, IgG, glucose, chlorine, pressure); test: CSF routine and biochemistry analysis; assay type: in vivo, human; conditions: for Chlorine-W 24 / Protein-W 24 / WBC-W 24 / Glucose-W23 / Δ Protein / ΔChlorine / ΔGlucose / ΔWBC: CSF; for Glucose-W23: after treatment; for Δ Protein / ΔChlorine / ΔGlucose / ΔWBC / ΔICP: week 24 - week 0, median
[3] = system: patients with cognitive dysfunction caused by HIV-associated CM-IRIS; assay type: in vivo, human; conditions: for ΔMoCA: week 24 - week 0, median
[4] = individual patients P1-P4 (cognitive improvement group)
[5] = individual patients P5-P7 (cognitive non-improvement group)
[6] = individual Patients 1-4 (cognitive improvement group)
[7] = individual Patients 5-7 (cognitive non-improvement group)

Nc1cccc2c1CN(C1CCC(=O)NC1=O)C2=O (centres unmarked) [lenalidomide]
change in CSF G-CSF level after treatment (CSF cytokines; CI group, P<0.001): significant decline
change in CSF GRO level after treatment (CSF cytokines; CI group, P<0.001): significant decline
change in CSF IL-6 level after treatment (CSF cytokines; CI group, P<0.001): significant decline
change in CSF IL-8 level after treatment (CSF cytokines; CI group, P<0.001): significant decline
change in CSF IL-10 level after treatment (CSF cytokines; CI group, P<0.001): significant decline
change in CSF CFH level after treatment (CSF cytokines; CI group, P=0.002): significant decline
change in CSF TNF-α level after treatment (CSF cytokines; CI group, P=0.002): significant decline
change in CSF α-2-M level after treatment (CSF cytokines; CI group, P=0.003): significant decline
change in CSF tTau level after treatment (CSF cytokines; CNI group, P=0.030): increased significantly
CSF Apo. E (CSF cytokines; [4]): 5683 pg/mL and 1764 pg/mL and 2487 pg/mL and 1873 pg/mL
CSF CFH (CSF cytokines; [4]): 4617 pg/mL and 2381 pg/mL and 2275 pg/mL and 1603 pg/mL
CSF Complement C3 (CSF cytokines; [4]): 10475 pg/mL and 4010 pg/mL and 818.22 pg/mL and 1909 pg/mL
CSF FGF-2 (CSF cytokines; [4]): 16.08 pg/mL
CSF G-CSF (CSF cytokines; [4]): 22.02 pg/mL and 3.57 pg/mL (2×) and 5.99 pg/mL
CSF GM-CSF (CSF cytokines; [4]): 0.98 pg/mL and 1.02 pg/mL and 1.94 pg/mL and 2.81 pg/mL
CSF GRO (CSF cytokines; [4]): 111.65 pg/mL and 63.2 pg/mL and 32 pg/mL and 149.74 pg/mL
CSF IFN-γ (CSF cytokines; [4]): 1.31 pg/mL and 0.7 pg/mL and 0.66 pg/mL and 1.6 pg/mL
CSF IL-1α (CSF cytokines; [4]): 1.91 pg/mL and 1.71 pg/mL and 1.65 pg/mL and 1.37 pg/mL
CSF IL-1β (CSF cytokines; [4]): 1.15 pg/mL and 1.09 pg/mL and 0.88 pg/mL and 1.11 pg/mL
CSF IL-2 (CSF cytokines; [4]): 0.72 pg/mL and 0.69 pg/mL and 0.64 pg/mL and 0.81 pg/mL
CSF IL-3 (CSF cytokines; [4]): 0.41 pg/mL and 0.44 pg/mL and 0.43 pg/mL and 0.34 pg/mL
CSF IL-4 (CSF cytokines; [4]): 1.49 pg/mL and 2.22 pg/mL and 0.82 pg/mL (2×)
CSF IL-6 (CSF cytokines; [4]): 12.8 pg/mL and 63.58 pg/mL and 2.85 pg/mL (2×)
CSF IL-8 (CSF cytokines; [4]): 175.42 pg/mL and 164.92 pg/mL and 64.25 pg/mL and 118.93 pg/mL
CSF IL-10 (CSF cytokines; [4]): 4.21 pg/mL and 4.14 pg/mL and 2.45 pg/mL and 4.07 pg/mL
CSF IL-12p40 (CSF cytokines; [4]): 1.78 pg/mL and 0.38 pg/mL and 0.92 pg/mL and 10.92 pg/mL
CSF IL-12p70 (CSF cytokines; [4]): 2.46 pg/mL and 0.67 pg/mL and 2.09 pg/mL and 1.34 pg/mL
CSF IL-13 (CSF cytokines; [4]): 1.19 pg/mL and 0.8 pg/mL and 0.71 pg/mL and 1.09 pg/mL
CSF IL-17α (CSF cytokines; [4]): 0.62 pg/mL
CSF IP-10 (CSF cytokines; [4]): 12150 pg/mL and 4404 pg/mL and 3063 pg/mL and 12231 pg/mL
CSF MCP-1 (CSF cytokines; [4]): 1624 pg/mL and 2268 pg/mL and 987.31 pg/mL and 923.8 pg/mL
CSF MIP-1α (CSF cytokines; [4]): 4.61 pg/mL and 18.47 pg/mL and 3.38 pg/mL (2×)
CSF MIP-1β (CSF cytokines; [4]): 23.79 pg/mL and 31.7 pg/mL and 9.58 pg/mL and 5.86 pg/mL
CSF PDGF-AA (CSF cytokines; [4]): 5.66 pg/mL and 6.92 pg/mL and 2.78 pg/mL (2×)
CSF TNF-α (CSF cytokines; [4]): 7.46 pg/mL and 6.82 pg/mL and 2.46 pg/mL and 8.22 pg/mL
CSF apoA-I (CSF cytokines; [4]): 6850 pg/mL and 683.32 pg/mL and 668.25 pg/mL and 788.79 pg/mL
CSF pTau 181 (CSF cytokines; [4]): 61.43 pg/mL and 38.37 pg/mL and 42.96 pg/mL and 19.12 pg/mL
CSF sCD40L (CSF cytokines; [4]): 2.49 pg/mL (3×) and 4.91 pg/mL
CSF tTau (CSF cytokines; [4]): 1594 pg/mL and 431.47 pg/mL and 752.55 pg/mL and 234.58 pg/mL
CSF α-2-M (CSF cytokines; [4]): 10777 pg/mL and 4765 pg/mL and 3814 pg/mL and 2942 pg/mL
CSF αβ42 (CSF cytokines; [4]): 2364 pg/mL and 708.02 pg/mL and 1573 pg/mL and 693.92 pg/mL
CSF Apo. E (CSF cytokines; [5]): 5462 pg/mL and 2829 pg/mL and 2633 pg/mL
CSF CFH (CSF cytokines; [5]): 3699 pg/mL and 1253 pg/mL and 2446 pg/mL
CSF Complement C3 (CSF cytokines; [5]): 4249 pg/mL and 2914 pg/mL and 1335 pg/mL
CSF FGF-2 (CSF cytokines; [5]): 13.73 pg/mL and 48.91 pg/mL
CSF G-CSF (CSF cytokines; [5]): 2.84 pg/mL
CSF GM-CSF (CSF cytokines; [5]): 2.58 pg/mL and 1.29 pg/mL (2×)
CSF GRO (CSF cytokines; [5]): 117.5 pg/mL and 44.05 pg/mL and 73.45 pg/mL
CSF IFN-γ (CSF cytokines; [5]): 1.67 pg/mL and 1.01 pg/mL and 0.66 pg/mL
CSF IL-1α (CSF cytokines; [5]): 3.37 pg/mL and 1.95 pg/mL and 1.42 pg/mL
CSF IL-1β (CSF cytokines; [5]): 2.16 pg/mL and 1.03 pg/mL and 1.13 pg/mL
CSF IL-2 (CSF cytokines; [5]): 1.44 pg/mL and 0.7 pg/mL and 0.74 pg/mL
CSF IL-3 (CSF cytokines; [5]): 0.82 pg/mL and 0.52 pg/mL and 0.3 pg/mL
CSF IL-4 (CSF cytokines; [5]): 2.71 pg/mL and 2.22 pg/mL and 0.49 pg/mL
CSF IL-6 (CSF cytokines; [5]): 2.85 pg/mL
CSF IL-8 (CSF cytokines; [5]): 234.05 pg/mL and 62.23 pg/mL and 171.82 pg/mL
CSF IL-10 (CSF cytokines; [5]): 2.45 pg/mL and 3.7 pg/mL
CSF IL-12p40 (CSF cytokines; [5]): 1.65 pg/mL and 1.13 pg/mL and 0.52 pg/mL
CSF IL-12p70 (CSF cytokines; [5]): 2.69 pg/mL and 1.25 pg/mL and 1.44 pg/mL
CSF IL-13 (CSF cytokines; [5]): 1.91 pg/mL and 0.99 pg/mL and 0.92 pg/mL
CSF IL-17α (CSF cytokines; [5]): 1.13 pg/mL and 0.62 pg/mL
CSF IP-10 (CSF cytokines; [5]): 13221 pg/mL and 3398 pg/mL and 9823 pg/mL
CSF MCP-1 (CSF cytokines; [5]): 3992.12 pg/mL and 981.12 pg/mL and 3011 pg/mL
CSF MIP-1α (CSF cytokines; [5]): 3.38 pg/mL and 5 pg/mL
CSF MIP-1β (CSF cytokines; [5]): 31.83 pg/mL and 13.92 pg/mL and 17.91 pg/mL
CSF PDGF-AA (CSF cytokines; [5]): 6.89 pg/mL and 2.9 pg/mL and 3.99 pg/mL
CSF TNF-α (CSF cytokines; [5]): 8.22 pg/mL and 3.01 pg/mL and 5.21 pg/mL
CSF apoA-I (CSF cytokines; [5]): 2047.9 pg/mL and 833.9 pg/mL and 1214 pg/mL
CSF pTau 181 (CSF cytokines; [5]): 85.14 pg/mL and 48.8 pg/mL and 36.34 pg/mL
CSF sCD40L (CSF cytokines; [5]): 2.49 pg/mL
CSF tTau (CSF cytokines; [5]): 1309.82 pg/mL and 681.32 pg/mL and 628.5 pg/mL
CSF α-2-M (CSF cytokines; [5]): 7109 pg/mL and 2778 pg/mL and 4331 pg/mL
CSF αβ42 (CSF cytokines; [5]): 2453 pg/mL and 1168 pg/mL and 1285 pg/mL
bioavailability [1]: high
change in CSF WBC after lenalidomide treatment ([2]; CI group, P=0.032): significant decline
change in CSF albumin after lenalidomide treatment ([2]; CI group, P=0.034): significant decline
change in CSF protein after lenalidomide treatment ([2]; CI group, P=0.034): significant decline
change in CSF IgG levels after lenalidomide treatment ([2]; CI group, P=0.050): significant decline
Chlorine-W 24 [2, 6]: 128 mmol/L (2×) and 131 mmol/L and 121 mmol/L
Protein-W 24 [2, 6]: 1.081 g/L and 1.24 g/L and 0.745 g/L and 0.788 g/L
WBC-W 24 [2, 6]: 2 ×106/L (2×) and 10 ×106/L and 0 ×106/L
Chlorine-W 24 [2, 7]: 123 mmol/L (2×) and 127 mmol/L
Protein-W 24 [2, 7]: 0.37 g/L and 0.908 g/L and 1.15 g/L
WBC-W 24 [2, 7]: 1e+06 L⁻¹ and 1e+07 L⁻¹ and 7e+06 L⁻¹
Glucose-W23 [2, 6]: 2.4 mmol/L and 2.5 mmol/L and 3.6 mmol/L and 2.6 mmol/L
Glucose-W23 [2, 7]: 4.7 mmol/L and 2.4 mmol/L and 2.8 mmol/L
Δ Protein ([2]; CI group): -4.4 g/L
ΔChlorine ([2]; CI group): 2.0 mmol/L
ΔGlucose ([2]; CI group): 0.4 mmol/L
ΔWBC ([2]; CI group): -1.18e+08 L⁻¹
Δ Protein ([2]; CNI group): 0.3 g/L
ΔChlorine ([2]; CNI group): -4.0 mmol/L
ΔGlucose ([2]; CNI group): -0.3 mmol/L
ΔWBC ([2]; CNI group): 7e+06 L⁻¹
ICP-W 24 [2, 6]: 120 mmH2O and 152 mmH2O and 150 mmH2O and 85 mmH2O
ICP-W 24 [2, 7]: 200 mmH2O and 120 mmH2O and 95 mmH2O
ΔICP ([2]; CI group): 10.0 mmH2O
ΔICP ([2]; CNI group): −20.0 mmH2O
median MoCA score ([3]; W24, after 6 cycles lenalidomide 25 mg/day (21 days on, 7 off), 7 patients, baseline 23.0 (13.0-24.0), P=0.018): 26.0 (24.0-28.0)
memory score in the MoCA ([3]; W24, baseline 1.0 (0-3.0), P=0.026): 4.0 (3.0-5.0)
MoCA-W 24 [3, 6]: 30 scores and 26 scores (2×) and 28 scores
MoCA-W 24 [3, 7]: 24 scores and 25 scores and 19 scores
ΔMoCA ([3]; CI group): 8.5 scores
ΔMoCA ([3]; CNI group): 1.0 scores
